US5612174A, “Photographic yellow dye-forming couplers and silver halide color photographic materials containing the same” (Fuji Photo Film Co., Ltd., priority 1994, dated 1997)

Legend:
[1] = Solubility of yellow couplers in 100 ml of ethyl acetate at 25° C.; assay type: physicochemical; details: for Solubility: 25° C.; for solubility in ethyl acetate relative to RY-1 and RY-2: in words
Protocol: Test for Solubility of Yellow Couplers in Organic Solvents:
A test was conducted in order to determine what grams of the yellow coupler shown in Table A below are dissolved in 100 ml of ethyl acetate at 25° C. The yellow coupler was gradually added to 100 ml of ethyl acetate by 0.1 g at a time and stirred for 5 minutes, whereupon the amount not dissolved was referred to as a saturation point. The results are shown in Table A. As comparative couplers, used were the following RY-1 and RY-2. [drawing 15]
Solubility of Couplers in 100 ml of
Ethyl Acetate (at 25° C.)

[2] = Solubility of yellow couplers in high boiling point organic solvents Solv-2, Solv-3 and Solv-9; assay type: physicochemical; details: in words
Protocol: The same test as above was conducted to determine the solubility of the yellow couplers in known high boiling point organic solvents Solv-2, Solv-3 and Solv-9 mentioned below.

| SMILES | Solubility [1] | solubility in ethyl acetate relative to RY-1 and RY-2 [1] | solubility in known high boiling point organic solvents relative to RY-1 and RY-2 [2] |
| --- | --- | --- | --- |
| CCC(Oc1ccc(C(C)(C)CC)cc1C(C)(C)CC)C(=O)Nc1ccc(Cl)c(NC(=O)C(C(=O)C(C)(C)C)N2C(=O)NC(C)(C)C2=O)c1 (centres unmarked) [RY-1, reference compound] | 15.8 g/100 ml |  |  |
| CCCCCCCCCCCCCCCCCC(=O)Nc1ccc(Cl)c(NC(=O)C(C(=O)C(C)(C)C)N2C(=O)NC(C)(C)C2=O)c1 (centres unmarked) [RY-2, reference compound] | 8.5 g/100 ml |  |  |
| CCC=CCC=CCC=CCCCCCCCC(=O)Nc1ccc(Cl)c(NC(=O)C(C(=O)C(C)(C)C)N2C(=O)NC(C)(C)C2=O)c1 (centres unmarked) [Y-3] | 21.4 g/100 ml | much larger solubility in ethyl acetate than the known yellow couplers of RY-1 and RY-2 | much larger solubility in such solvents than the known yellow couplers of RY-1 and RY-2 |
| CCCCCCCCC=CCCCCCCCC(=O)Nc1ccc(OC)c(NC(=O)C(C(=O)C(C)(C)C)N2C(=O)NC(C)(C)C2=O)c1 (centres unmarked) [Y-13] | 20.8 g/100 ml | much larger solubility in ethyl acetate than the known yellow couplers of RY-1 and RY-2 | much larger solubility in such solvents than the known yellow couplers of RY-1 and RY-2 |

Further lines, with some results ahead:

| Solubility [1] | SMILES | solubility in ethyl acetate relative to RY-1 and RY-2 [1] | solubility in known high boiling point organic solvents relative to RY-1 and RY-2 [2] |
| --- | --- | --- | --- |
| 21.0 g/100 ml | CCCCCCCCC=CCCCCCCCC(=O)Nc1ccc(Cl)c(NC(=O)C(C(=O)C(C)(C)C)N2C(=O)NC(C)(C)C2=O)c1 (centres unmarked) [Y-1] | much larger solubility in ethyl acetate than the known yellow couplers of RY-1 and RY-2 | much larger solubility in such solvents than the known yellow couplers of RY-1 and RY-2 |
| 21.2 g/100 ml | CCCCCC=CCC=CCCCCCCCC(=O)Nc1ccc(Cl)c(NC(=O)C(C(=O)C(C)(C)C)N2C(=O)NC(C)(C)C2=O)c1 (centres unmarked) [Y-2] | much larger solubility in ethyl acetate than the known yellow couplers of RY-1 and RY-2 | much larger solubility in such solvents than the known yellow couplers of RY-1 and RY-2 |
